Experimental data taken from ChEMBL document CHEMBL1201862, “PubChem BioAssay data set” (2004).
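Exposure lasted 48 hours, with cells grown in 96-well plates and compounds tested at five concentrations. GI50: concentration for 50% inhibition of growth.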 The source made the active and inactive calls. Rule as the data show it: active = GI50 up to about 1.1 µM and inactive = higher.

Key:
Test in all cases: NCI tumour cell line growth inhibition, 48 h
NCI-H226 = system: NCI-H226
SW-620 = system: SW-620
786-0 = system: 786-0
SK-MEL-28 = system: SK-MEL-28
HCT-15 = system: HCT-15
MCF7 = system: MCF7
OVCAR-3 = system: OVCAR-3
OVCAR-8 = system: OVCAR-8
MDA-MB-435 = system: MDA-MB-435
LOX IMVI = system: LOX IMVI
SNB-19 = system: SNB-19
Malme-3M = system: Malme-3M
SN12C = system: SN12C
TK-10 = system: TK-10
KM12 = system: KM12
HOP-92 = system: HOP-92
COLO 205 = system: COLO 205
HOP-62 = system: HOP-62
SNB-75 = system: SNB-75
HCC 2998 = system: HCC 2998

Row | Structure (SMILES) | GI50 (NCI-H226) | GI50 (SW-620) | GI50 (786-0) | GI50 (SK-MEL-28) | GI50 (HCT-15) [µM] | GI50 (MCF7) | GI50 (OVCAR-3) | GI50 (OVCAR-8) | GI50 (MDA-MB-435) | GI50 (LOX IMVI) | GI50 (SNB-19) | GI50 (Malme-3M) | GI50 (SN12C) | GI50 (TK-10) | GI50 (KM12) | GI50 (HOP-92) | GI50 (COLO 205) | GI50 (HOP-62) | GI50 (SNB-75) | GI50 (HCC 2998)
1 | NNC(=O)c1ccc(OCc2nc3ccccc3[nH]2)cc1 | > 100 µM (inactive) | > 100 µM (inactive) | > 100 µM (inactive) | > 100 µM (inactive) | > 100 | 72.6 µM (inactive) | 43.5 µM (inactive) | > 100 µM (inactive) | > 100 µM (inactive) | > 100 µM (inactive) | > 100 µM (inactive) | > 100 µM (inactive) | > 100 µM (inactive) | > 100 µM (inactive) | > 100 µM (inactive) | > 100 µM (inactive) | 71.4 µM (inactive) | – | – | –
2 | CC(C)C(=O)OCC1OC(n2c(Br)nc3c(=O)[nH]c(N)nc32)C(OC(=O)C(C)C)C1OC(=O)C(C)C (stereo not given) | > 100 µM (inactive) | 29.2 µM (inactive) | 23.1 µM (inactive) | – | > 100 | 37.6 µM (inactive) | > 100 µM (inactive) | 31.4 µM (inactive) | – | 19.8 µM (inactive) | 81.8 µM (inactive) | > 100 µM (inactive) | 48 µM (inactive) | – | – | > 100 µM (inactive) | 90.4 µM (inactive) | > 100 µM (inactive) | 83.9 µM (inactive) | –
3 | COc1cc(/C=N/N=C(\N)NO)cc(OC)c1OC | 20.5 µM (inactive) | 50 µM (inactive) | 15.4 µM (inactive) | 57 µM (inactive) | 28.6 | 22.6 µM (inactive) | 21.9 µM (inactive) | 18.5 µM (inactive) | 44.6 µM (inactive) | 31.1 µM (inactive) | > 100 µM (inactive) | 22 µM (inactive) | 33.8 µM (inactive) | > 100 µM (inactive) | 18.7 µM (inactive) | 23.5 µM (inactive) | 12.4 µM (inactive) | 27.4 µM (inactive) | – | 36.6 µM (inactive)
4 | O=C1Oc2ccccc2N/C1=C/C(=O)c1ccc([N+](=O)[O-])cc1 | > 100 µM (inactive) | – | > 100 µM (inactive) | – | > 100 | > 100 µM (inactive) | > 100 µM (inactive) | > 100 µM (inactive) | > 100 µM (inactive) | – | > 100 µM (inactive) | > 100 µM (inactive) | > 100 µM (inactive) | > 100 µM (inactive) | > 100 µM (inactive) | – | > 100 µM (inactive) | > 100 µM (inactive) | > 100 µM (inactive) | > 100 µM (inactive)
5 | CCOC1=NC(C(F)(F)F)(C(F)(F)F)N=C(/N=C(/N)N(C)C(C(C)C)P(=O)(OC(C)C)OC(C)C)O1 (stereo not given) | > 100 µM (inactive) | 49.5 µM (inactive) | > 100 µM (inactive) | > 100 µM (inactive) | 58.7 | > 100 µM (inactive) | 67.6 µM (inactive) | 48.5 µM (inactive) | > 100 µM (inactive) | 81.5 µM (inactive) | > 100 µM (inactive) | 54.1 µM (inactive) | 76 µM (inactive) | > 100 µM (inactive) | 78.2 µM (inactive) | – | > 100 µM (inactive) | > 100 µM (inactive) | 44.8 µM (inactive) | > 100 µM (inactive)
6 | Clc1ccc(-c2nn3c(-c4ccncc4)nnc3s2)cc1 | > 100 µM (inactive) | > 100 µM (inactive) | 11 µM (inactive) | – | 16.4 | > 100 µM (inactive) | > 100 µM (inactive) | > 100 µM (inactive) | > 100 µM (inactive) | > 100 µM (inactive) | 59.2 µM (inactive) | > 100 µM (inactive) | > 100 µM (inactive) | > 100 µM (inactive) | > 100 µM (inactive) | 41.6 µM (inactive) | > 100 µM (inactive) | 20.8 µM (inactive) | – | –
7 | O=C(/C=C/c1ccc2c(c1)OCO2)Cc1nc2ccccc2[nH]c1=O | – | 30.4 µM (inactive) | 16.7 µM (inactive) | 16.4 µM (inactive) | 8.95 | 33.9 µM (inactive) | 27.3 µM (inactive) | 28.5 µM (inactive) | 20 µM (inactive) | 3.52 µM (inactive) | 24.2 µM (inactive) | 18.3 µM (inactive) | 24.1 µM (inactive) | 18.5 µM (inactive) | 18.9 µM (inactive) | 20.7 µM (inactive) | 52.6 µM (inactive) | 17.5 µM (inactive) | – | 26.5 µM (inactive)
8 | O=c1[nH]nc(-c2ccccc2)n1/N=C/c1ccco1 | – | > 100 µM (inactive) | > 100 µM (inactive) | > 100 µM (inactive) | > 100 | 0.0719 µM (active) | > 100 µM (inactive) | > 100 µM (inactive) | > 100 µM (inactive) | > 100 µM (inactive) | > 100 µM (inactive) | > 100 µM (inactive) | 29.2 µM (inactive) | > 100 µM (inactive) | > 100 µM (inactive) | > 100 µM (inactive) | > 100 µM (inactive) | > 100 µM (inactive) | > 100 µM (inactive) | –
9 | C[C@]12CCC3c4ccc(OC(=O)c5ccccc5)cc4CC[C@H]3C1CC[C@@H]2OC(=O)C12OC1CCC2=O (stereo not given in full) | 14.9 µM (inactive) | 2.64 µM (inactive) | 2.67 µM (inactive) | 6.11 µM (inactive) | 5.55 | – | 3.13 µM (inactive) | 4.53 µM (inactive) | – | 3.33 µM (inactive) | 20.5 µM (inactive) | 5.85 µM (inactive) | 5.9 µM (inactive) | 18.7 µM (inactive) | 6.93 µM (inactive) | 19.7 µM (inactive) | 2.84 µM (inactive) | 6.21 µM (inactive) | 13.7 µM (inactive) | 23.7 µM (inactive)
10 | CC(C)CNC(=O)Cn1c2c(c3ccccc31)CCCC2 | – | > 100 µM (inactive) | 20.7 µM (inactive) | > 100 µM (inactive) | > 100 | > 100 µM (inactive) | 39 µM (inactive) | 81.5 µM (inactive) | 73.3 µM (inactive) | 39.5 µM (inactive) | 85.3 µM (inactive) | 82.4 µM (inactive) | > 100 µM (inactive) | 35.8 µM (inactive) | – | 43.8 µM (inactive) | 73.8 µM (inactive) | 54.3 µM (inactive) | – | > 100 µM (inactive)
11 | CC(=O)C1(C(=O)C(=[N+]=[N-])S(=O)(=O)c2ccccc2)CC1 | > 100 µM (inactive) | > 100 µM (inactive) | > 100 µM (inactive) | > 100 µM (inactive) | > 100 | > 100 µM (inactive) | > 100 µM (inactive) | > 100 µM (inactive) | > 100 µM (inactive) | > 100 µM (inactive) | > 100 µM (inactive) | > 100 µM (inactive) | > 100 µM (inactive) | > 100 µM (inactive) | > 100 µM (inactive) | – | > 100 µM (inactive) | > 100 µM (inactive) | > 100 µM (inactive) | > 100 µM (inactive)
12 | Cc1c[n+]2c3ccccc3c3ccccc3c2s1.[O-][Cl+3]([O-])([O-])[O-] | 0.536 µM (active) | 5.4 µM (inactive) | 3.37 µM (inactive) | 2.25 µM (inactive) | > 100 | – | 0.787 µM (active) | 3.3 µM (inactive) | – | 15.2 µM (inactive) | 3.36 µM (inactive) | 2.49 µM (inactive) | 2.61 µM (inactive) | 1.39 µM (inactive) | 1.07 µM (active) | 16.6 µM (inactive) | 7.89 µM (inactive) | 6.52 µM (inactive) | 3.31 µM (inactive) | 3.2 µM (inactive)
13 | CC[N+](CC)(CC)/C(=N\S(=O)(=O)c1ccc(Cl)cc1)[N-]S(=O)(=O)c1cc(C)c(Cl)cc1S | 32.1 µM (inactive) | 70.3 µM (inactive) | > 100 µM (inactive) | > 100 µM (inactive) | 66.7 | 53.2 µM (inactive) | 83 µM (inactive) | > 100 µM (inactive) | > 100 µM (inactive) | > 100 µM (inactive) | – | – | – | 58.7 µM (inactive) | > 100 µM (inactive) | 24.9 µM (inactive) | – | 52 µM (inactive) | – | 73.5 µM (inactive)
14 | Cc1cccc(NC(=O)/C=C/c2ccc(N(CCC#N)CCC#N)cc2C)c1 | > 100 µM (inactive) | > 100 µM (inactive) | > 100 µM (inactive) | > 100 µM (inactive) | 29 | – | > 100 µM (inactive) | > 100 µM (inactive) | – | 43.7 µM (inactive) | > 100 µM (inactive) | > 100 µM (inactive) | > 100 µM (inactive) | > 100 µM (inactive) | > 100 µM (inactive) | > 100 µM (inactive) | > 100 µM (inactive) | > 100 µM (inactive) | 54.5 µM (inactive) | > 100 µM (inactive)
15 | O=S(=O)(O)c1cc(S(=O)(=O)O)c2c(/N=N/c3ccccc3)c(O)ccc2c1 | > 100 µM (inactive) | > 100 µM (inactive) | > 100 µM (inactive) | > 100 µM (inactive) | > 100 | – | > 100 µM (inactive) | > 100 µM (inactive) | > 100 µM (inactive) | > 100 µM (inactive) | > 100 µM (inactive) | – | > 100 µM (inactive) | > 100 µM (inactive) | > 100 µM (inactive) | > 100 µM (inactive) | > 100 µM (inactive) | > 100 µM (inactive) | > 100 µM (inactive) | –
16 | O=C(O)c1cc2cc(OCc3ccccc3)ccc2[nH]1 | 23.4 µM (inactive) | > 100 µM (inactive) | > 100 µM (inactive) | 4.01 µM (inactive) | > 100 | 88.1 µM (inactive) | > 100 µM (inactive) | > 100 µM (inactive) | > 100 µM (inactive) | > 100 µM (inactive) | 73.6 µM (inactive) | 0.116 µM (active) | > 100 µM (inactive) | > 100 µM (inactive) | > 100 µM (inactive) | 23.6 µM (inactive) | > 100 µM (inactive) | > 100 µM (inactive) | – | > 100 µM (inactive)
